Assay results reported in patent publication US20220194952A1, “TETRAPYRROLIC CONJUGATES AND USES THEREOF FOR IMAGING” (Health Research, Inc., priority 2019, published 2022).

Columns and labels:
[1] = Singlet oxygen phosphorescence at 1270 nm, methanol, pulsed laser 532 nm; type: physicochemical; conditions: near 5 μM, equi-absorbant at 532 nm, excited at 532 nm
Protocol: The photosensitizers, e. g., HPPH (control), 2 and 4 were individually dissolved in methanol (concentration: 5 μM) in polystyrene cuvettes and excited at 532 nm using a pulsed laser. Phosphorescence of singlet oxygen was detected at 1270 nm.
Before evaluating the imaging and photosensitizing potential of the chlorin 4 with extended ring system, its singlet oxygen producing ability was compared with the related chlorin 2. In brief, both compounds were individually dissolved in methanol in equi-absorbant (at 532 nm) concentrations near 5 μM and excited at 532 nm using a pulsed laser. The phosphorescence of singlet oxygen was detected at 1270 nm. From the results summarized in FIG. 4, it can be seen that compared to chlorin 2 with a five-member isocyclic ring, the related analog 4 with an extended ring system had remarkably lower singlet oxygen producing ability. Singlet oxygen quantum yields were φ=0.29 and φ=0.02 respectively, compared to HPPH φ=0.45.

[2] = Photobleaching in 17% bovine calf serum; type: physicochemical; conditions: 660 nm
Protocol: Photobleaching was performed in quartz cuvettes on a 5 μM solution of 2 and a 25 μM solution of 4 in 17% BCS. The higher molarity was chosen to approximate the absorbance of 2 at 5 μM. A dye laser was used at dose rate 75 mW/cm^2, and excitation wavelength for 2 was 660 nm and for 4 was 785 nm.
In photodynamic therapy, photobleaching is the photochemical alteration of a chromophore or a fluorophore molecule such that could either permanently is unable to fluoresce or alter its fluorescence characteristics. This is caused by cleaving of the covalent bonds or non-specific reaction between the reactive oxygen species (e.g., singlet oxygen) and the molecule. These […] species formed by conversion of the molecular oxygen present in tumor to singlet oxygen by exposing the photosensitizer with light at an appropriate wavelength. The rate of photobleaching of the PS should depend (a) availability of oxygen, (b) photostability of PS and finally (c) the singlet oxygen (or other reactive oxygen species) producing ability of the PS.
To investigate the photobleaching characteristics of the photosensitizers, compounds 2 and 4 in equimolar concentrations (5 μM) were taken in quartz cuvettes in 17% bovine calf serum. Dye lasers with appropriate wavelength (2: 660 nm and 4: 785 nm) were used at a dose rate of 75 mW/cm^2. Both the compounds in formulated forms were irradiated with light and the absorption spectra at their long wavelength absorptions were measured with time. The decay in absorbance was plotted against the time of light exposure.

[3] = Absorbance (UV-VIS) in methanol; type: physicochemical; conditions: ε665 for 2 (peak 660 nm), ε785 for 4 (peak 785 nm)
Protocol: Absorbance of 2 and 4 was measured using different concentrations in methanol on UV-VIS and indicates far-red peaks at 660 nm and 785 nm, with extinction coefficients ε665=47,500 L·mol^−1 cm^−1 and ε785=18,100 L·mol^−1 cm^−1 respectively.
Chemistry Methods: All reactions were carried out in heat gun-dried glassware under an atmosphere of nitrogen and magnetic stirring. Thin layer chromatography (TLC) was done on pre-coated silica gel sheets (layer thickness 0.2 mm). Column chromatography was performed either using silica gel 60 (70-230 mesh) or neutral alumina grade III. In some cases preparative TLC was used for the purification of compounds. Purity of the compounds was ascertained by TLC and HPLC analysis. All compounds including the intermediates were >95% pure. UV-visible spectra were recorded on FT UV-visible spectrophotometer using methanol as a solvent. Mass spectrometry analyses were performed at the Mass Spectrometry Facility, University at Buffalo, N.Y. Compounds 1 and 2 were synthesized by following the methodologies previously described.

[4] = tested on: Colon26 tumors; assay: In vivo PDT efficacy; parameters: species or system BALB/c mice; conditions: dose 1 μmol/kg; light 135 J/cm^2, 75 mW/cm^2 at 24 h postinjection; 5 mice/group
Protocol: Tumors were exposed to light (135 J/cm^2, 75 mW/cm^2) at 24 h (hour) postinjection (optimal time for tumor uptake for both the PSs).
For determining the in vivo imaging and therapeutic potential of 2, BALB/c mice (5-10 mice/group) bearing Colon26 tumors were used. In brief, 1×10^6 Colon26 cells were injected in mice subcutaneously. The tumors were left to grow for 1 week until they achieve the desired size (3-5 mm) for treatment. The photosensitizer was injected intravenously following the animal protocol approved by RPCI IACUC committee. Irradiance occurred 24 hours after i. v. injection; light dose was 135 J/cm^2 at a dose rate of 75 mW/cm^2 using the near-IR wavelengths of interest: 665 nm or 789 nm.
Two axes of the tumor (L, longest axis; W, shortest axis) were measured in millimeters with the aid of a Vernier caliper. Tumor weight (mg) was estimated as a formula: tumor weight=1/2 (L×W2). Tumor measurements were taken daily for the first 10 days and at least three tine a week for the first 4 weeks of post therapy and twice a week thereafter. Endpoints were 400 mm^3 tumor volume or 60 days.

[5] = tested on: Colon26 cells; assay: In vitro cytotoxicity (PDT) MTT assay; type: cell-based
Protocol: Drug concentrations were increased 10× (0.25 to 32.0 μM) and a significant cytotoxicity was observed only at high concentrations at the highest light dose.
Assessment of cell growth following treatment with compound solutions alone and after light exposure was determined by a colorimetric assay that measured the reduction of yellow 3-(4,5-dimethythiazol-2-yl)-2,5-diphenyl tetrazolium bromide (MTT) by mitochondrial succinate dehydrogenase.
Briefly cells were plated into 96 well plates, allowed to adhere to the plate and are treated with a range of compound concentrations for various lengths of time. The light source consisted of dye lasers (375; Spectra-Physics, Mt. View, Calif.) pumped by an argon-ion laser (either 171 or 2080; Spectra-Physics). The dye lasers were tuned to the appropriate wavelength for the compound being tested. Total light doses were ranged from 0.125 to 1.0 J/cm^2 at a fluence rate of 3.2 mW/cm^2. At 48 hours post PDT treatment, MTT was added. The solubilized formazan product was measured spectro-photometrically using a BIOTEK EL-800 plate reader. Data were processed using GEN5 software. A medium blank value was subtracted from all samples and Optical Density (O.D.) values of treated cells were divided by mean O.D. value of untreated cells for each light dose).
Colon26 cells were plated and allowed to adhere for 4 hours, then the photosensitizer was added and incubated at 37° C. for 24 hours. Plates were irradiated with 789 nm light from a dye laser at 3.2 mW/cm^2 for a total dose of 0.25 to 1.0 Joule/cm^2.

[6] = tested on: Colon26 tumors; assay: In vivo whole body tumor fluorescence imaging (IVIS Spectrum); parameters: species or system BALB/c mice; conditions: non-radioactive analogs, i.v., post-injection
Protocol: Before evaluating in vivo PDT efficacy of PS 4 by exposing the tumors with light, the time point for optimal tumor uptake of PS was determined by whole body fluorescence imaging of tumored mice at various time points after injecting the PS.
The multi-spectral imaging system, IVIS Spectrum (Perkin-Elmer) along with Living Image (image acquisition and analysis software) was used. IVIS Spectrum has the capability to use either trans-illumination (from the bottom) or epi-illumination (from the top) to illuminate in vivo fluorescent sources. […] Regions of interest (ROI) were defined for areas of compound accumulation (tumor, liver, skin) and total and average signal within the region were recorded. Fluorescent intensity is expressed as the total radiant efficiency ([p/s]/[μW/cm^2]. Results are expressed as mean total radiant efficiency of three mice±SD.

[7] = tested on: Colon26 tumors; assay: PET imaging of 124I-analogs; conditions: ethanol/PBS formulation, 25 μCi/mouse
Protocol: Compounds were resuspended in 10% ethanol saline, and ˜50 μCi were injected per mouse.
Final product was formulated in 10% ethanol in saline for injection in mice for PET imaging and biodistribution studies. Formulations noted as Pluronic® were formulated in 2% Pluronic® F-127 in saline. Mice were injected with 50 μCi (˜100 μL) for biodistribution, or 100 μCi (˜200 μL) for PET imaging.

[8] = tested on: Colon26 tumors; assay: In vivo biodistribution of 124I-analogs; parameters: species or system BALB/c mice; conditions: for organ distribution (in words): ethanol/PBS formulation, i.v., 24, 48, 72 hours
Protocol: From left to right, each group is 24 hours 2, 48 hours 2, 72 hours 2, 24 hours 6, 48 hours 6, and 72 hours 6.
The labeled product, 6, was collected and dried.

Compound: CCC1=C(C)c2cc3[nH]c(cc4nc(c5c6[nH]c(cc1n2)c(C)c6C(=O)C5)[C@@H](CCC(=O)OC)[C@@H]4C)c(C)c3C(C)OCc1cccc([124I])c1 (stereo partly shown) [Compound 2, methyl 3-[1′-(m-iodobenzyloxy)ethyl]-3-devinyl pyropheophorbide]
- Singlet oxygen quantum yield φ [1]: 0.29
- photobleaching experimental endpoint reached ([2]; 5 μM in 17% BCS, 75 mW/cm^2): 20%
- fraction photobleached ([2]; 17% bovine calf serum, 5 μM, 75 mW/cm^2, by three hours): 80%
- extinction coefficient at far-red absorbance peak [3]: 47,500 L·mol^−1 cm^−1
- tumor cure after PDT [4]: 80%
- in vitro cytotoxicity at 10× increased drug concentrations (in words) ([5]; 0.25 to 32.0 μM, significant cytotoxicity only at high concentrations at the highest light dose (FIG. 8B)): toxic effects only at high concentrations
- in vitro cytotoxicity (in words) ([5]; variable drug concentrations, fixed light dose 1.0 J/cm^2 (FIG. 8A)): light dose-dependent cytotoxicity
- time of optimal uptake in tumor (fluorescence imaging) [6]: 24 h

Compound: CCC1=C(C)c2cc3[nH]c(cc4nc(c5c6[nH]c(cc1n2)c(C)c6C(=O)C5)[C@@H](CCC(=O)OC)[C@@H]4C)c(C)c3C(C)OCc1cccc(I)c1 (stereo partly shown) [Compound 2a, 3-(1′-m-iodobenzyloxy) ethyl-3-devinyl-pyropheo phorbide-a methyl ester, reference compound]
- time of maximum tumor uptake (PET) [7]: 24 h
- organ distribution (in words) [8]: significantly high uptake in spleen

Compound: CCC1=C(C)c2cc3[nH]c(cc4nc(c5c6[nH]c(cc1n2)c(C)c6C=C(OC)C5=O)[C@@H](CCCC(=O)OC)[C@@H]4C)c(C)c3[C@H](C)OCc1cccc([124I])c1 [Compound 6, Methyl 3-[1′-(m-^124iodobenzyloxy)ethyl]-3-devinyl-13^3-keto-13^2methoxycyclohexene (verdin)]
- tumor uptake ([8]; BALB/c mice implanted with Colon26 tumors, i.v.): > 9 % of the injected dose
- organ distribution (in words) [8]: significantly higher uptake in tumor than other organs

Compound: HPPH
- Singlet oxygen quantum yield φ [1]: 0.45
